Data on 3 substances can be found in patent US8865672B2, “Prevention of tissue ischemia and related methods” (The United States of America, as represented by the …, priority 2006, dated 2014).

Data set [1] has as its system random myocutaneous flaps in mice. The data set can be described thus: Random myocutaneous (McFarlane) flap model. Type of data set: in vivo, mouse. The procedure: WT and TSP1 null mice were matched for sex and age. Under isoflurane inhalation anesthesia 1×2 cm random myocutaneous flaps were raised. Where indicated, animals received either L-NAME (0.5 mg/ml) or ISDN (1 mg/ml) ad libitum in drinking water during the post-operative period. On postoperative day 7, the animals were again anesthetized with inhalation isoflurane and flaps evaluated. Viable and necrotic areas of the flaps were determined by color, refill, eschar, and the pin-prick test. Outlines of viable and nonviable areas were traced using transparent film and the area of flap necrosis versus total flap area determined as described (Yu et al., Proc Natl Acad Sci USA 102:10999-11004, 2005).
Wild type, TSP1 null, CD36 null and CD47 null mice were matched for sex and age underwent random dorsal myocutaneous flaps as described (Isenberg et al., Blood 2006; Example 2) and tissue harvested on postoperative day 7.
The necrotic area of the flap was determined as described (Isenberg et al., Blood. Nov. 2, 2006) Animals were then euthanized and flaps excised, fixed in 10% paraformaldehyde and processed for histology.
Random myocutaneous flap wound beds and/or ischemic hindlimb vastus medialis muscle was assessed at indicated time points (72 hours or 7 days post-operatively) for visible alterations in vascularity under 5× magnification. An arbitrary though strictly applied definition of countable vessels was employed to highlight both individual vessels and vascular ramifications. In any given vascular plexus visible by 5× magnification a vessel was defined as that segment traversing two branches. Visible vessels without ramifications and branches were counted once. Treatment status and genetic background of tissue images was not known by the reviewer.
Animals underwent creation of a random myocutaneous (McFarlane) flap as previously described (Isenberg et al., Blood 109:1945-1952, 2007). Some animals received either ISDN (1 mg/mL) or L-NAME (0.5 mg/ml) ad libitum in the drinking water during the post-operative interval.
Flap soft tissue units and underling wound beds were injected with control vehicle (normal saline), a CD47 morpholino or a control morpholino (10 μM) in sterile saline. Flap survival was determined as described.

Data set [2] deals with HAVSMC. The experiment in a line: 3D collagen matrix contraction assay, human aortic VSMC. The data set is classed as cell-based. Conditions: for TSP1 block of NO relaxation of FCS-induced gel contraction: human aortic VSMC pretreated with 10 μM morpholino. The procedure:
Type I collagen gel (3 mg/ml) with 10×M199 (Gibco, Grand Island, N.Y.) at a 10:1 ratio of collagen to medium was prepared, pH balanced with NaOH and seeded with either HAVSMC or VSMC harvested from aortic segments from C57B16 WT or TSP1 null mice (50,000 cells in 75 μl of gel/well) and aliquoted to 96-well plates (Nunc, Denmark). Plates were incubated for 12 h 37° C. and 5% CO2 allowing for gelation and cell spreading, gently released from the well walls and incubated in serum and additive deficient growth medium with 0.1% BSA in the presence of the indicated treatment agents for 10 h. Contraction was determined by measuring the diameter in perpendicular planes (x, y) of each disk, an average obtained and surface area calculated as (d/2)^2π. Experiments were performed in triplicate. Results represent the mean±SD of at least three separate experiments.
(§1) Human aortic VSMC were plated onto 12-well culture plates (Nunc) at a density of 5×10^4 cells/well in SM-GM+2% FCS and cultured until approximately 90% confluent. A translation-blocking antisense morpholino oligonucleotide complementary to human and murine CD47 ([…]; SEQ ID NO: 21) and a five-base mismatch control (CGTgACAGcCAcGACCgACTGCgCA; SEQ ID NO: 22) were obtained from GeneTools (Philomath, Oreg.). Cultured cells were treated as per the manufacturer's recommendation with morpholinos (10 μM) and utilized within 48 hours of treatment.

For data set [3], the system named is human aortic VSMC. The data set can be described thus: Intracellular cGMP in human aortic VSMC after morpholino. Type of data set: cell-based. The settings on record: for TSP1 inhibition of NO-driven cGMP accumulation: human aortic VSMC pre-treated with morpholino. How it is done: as §1
cGMP was determined in human aortic VSMC via immunoassay as described (Isenberg et al., Blood 2006; Example 2). In some situations cells were pretreated with a CD47 or control morpholino prior to assay.

For data set [4], the system named is white hairless Yucatan miniature pig VSMC. The experiment in a line: Intracellular cGMP in porcine VSMC. The data set is classed as cell-based. How it is done:
White hairless Yucatan miniature pig VSMC were plated onto culture plates (Nunc, Roskilde, Denmark) at a the indicated cell density in smooth muscle cell growth medium+2% FCS and cultured until approximately 90% confluent. Cultured cells were treated according to the recommendation of the manufacturer with morpholinos (10 μM) and delivery agent (Endoporter® 6 μl/ml) and used within 48 hours of treatment.
White hairless Yucatan miniature pig VSMC (10^4 cells/well) grown overnight in 12-well culture in SM-GM containing 2% FCS and then weaned off serum over 48 h before treatment with NO donors and other agents in serum/additive free medium+0.1% BSA. Intracellular cGMP levels were determined using an enzyme immunoassay (Amersham, GE Health Care, UK).

Data set [5] relates to CD47. The experiment in a line: Western analysis of CD47 in HUVEC. Type of data set: cell-based, human. Conditions: morpholino 0.1-10 μM, 48 h. The procedure: HUVEC were plated in 12-well culture plates (5×10^4 cells/well) (Nunc, Denmark) in full growth medium and treated over 48 h with indicated doses of CD47 and control morpholino. Cells were subsequently washed twice with PBS and lysed immediately in 1×SDS sample buffer containing 10 µg/mL leupeptin, […] aprotinin, 1 mM Na3VO4, and 40 mM NaF. Lysates prepared in the SDS sample buffer described above were electrophoresed in 4-12% BisTris NuPAGE gels and transferred to PVDF membranes prior to immunoblotting with a monoclonal antibody to CD47 (clone B6H12, Lab Visions, Inc, Fremont, Calif.). The membrane was stripped and reprobed with a monoclonal antibody against β-actin (Sigma-Aldrich, St. Louis, Mo.).

[6] abbreviates: WT mice 14-18 months, injected to flap and wound bed.
Setting [7] is: wild type flaps, local injection, day 7.
Setting [8] is: wild type flaps, morpholino 10 μM.

Consider “CGTCACAGGCAGGACCCACTGCCCA (all phosphorodiamidate morpholino (PMO)) [CD47 morpholino]”, for which, in data set [1] (ApoE-null mice 12-16 months, high fat diet, day 7), the flap tissue survival is 84±7%. This substance also came in with a flap tissue survival in data set [1] (setting [6]) of 91±4%. Also, in data set [1] (aged WT flaps), the flap mitochondrial viability entry is recorded as “markedly increased” and the “remodeling of collateral flap vessels” value is “substantial remodeling of existing collateral flap vessels”. Besides, the flap tissue survival in data set [1] (setting [7]) is given as around 100%. In addition, in data set [1] (setting [8]), the “CD47 immunohistochemical staining of flaps” value is listed as “decreased protein staining” and the wound bed vascularity result is given as “substantial increases in visible blood vessels”. In addition, in data set [2], the “TSP1 block of NO relaxation of FCS-induced gel contraction” value was “TSP1 was not able to block this relaxation”. Moreover, the “TSP1 inhibition of NO-driven cGMP accumulation” value in data set [3] is recorded as “essentially blind to the inhibitory effects of TSP1”. Besides, the “ability of TSP1 to suppress NO-stimulated cGMP after pretreatment” value in data set [4] (porcine VSMC, TSP1 2.2 nM) is “resistant to suppression by TSP1”. The “basal cGMP levels” value in data set [4] (resting porcine VSMC) is recorded as “elevated”. The “CD47 expression (Western)” value in data set [5] was “Effective dose-dependent suppression of CD47”.
For the substance “CGTgACAGcCAcGACCgACTGCgCA (antisense CGTGACAGCCACGACCGACTGCGCA; all phosphorodiamidate morpholino (PMO)) [control morpholino, reference compound]”, the flap tissue survival result in data set [1] (setting [6]) was “degrees of tissue necrosis comparable to untreated aged WT animals”; in data set [1] (setting [7]), “necrosis comparable to that for untreated wild type flaps”. Besides, in data set [2], the “TSP1 block of NO relaxation of FCS-induced gel contraction” value is on record as “remained sensitive to TSP1 inhibition”. The “TSP1 inhibition of NO-driven cGMP accumulation” value in data set [3] is on record as “retained sensitivity to inhibition”. In addition, the “CD47 expression (Western)” value in data set [5] is given as “did not show suppression of CD47”.
Consider “TSP1: thrombospondin-1 prepared from human platelets”, for which the “inhibitory activity of NO on gel contraction” value in data set [2] (HAVSMC, DETA/NO 10 μM, TSP1 2.2 nM) is reported as “completely abrogated”. For the same substance, the “NO-driven cGMP flux” value in data set [3] (untreated VSMC) was “complete inhibition of an NO-driven cGMP flux”. Further, the “NO-stimulated increase in cGMP” value in data set [4] (control and mismatch treated porcine VSMC, TSP1 2.2 nM) is reported as “blocked the increase in cGMP”.
